Literature values, collected in US11532831B1, “Redox-active compounds and uses thereof” (Palo Alto Research Center Incorporated, priority 2021, dated 2022).

Legend:
[1] = cited from earlier work
[2] = on platinum (footnote); cited from earlier work

Row | Substance | Solubility at pH 7 [1] | Kinetic rate constant [2] [cm/s]
1 | bis(trimethylammoniopropyl)ferrocene [BTMAP-Fc] | 1.9M | 
2 | ethylenediaminetetraacetatoferrate(2-) (Fe(II)-EDTA)/ethylenediaminetetraacetatoferrate(1-) (Fe(III)-EDTA) [Fe(EDTA)] |  | 0.026
3 | iron(II) (Fe^2+)/iron(III) (Fe^3+) [Fe^2+/Fe^3+] | insoluble | 
